Laboratory results as given in ChEMBL document CHEMBL4184305, “Inhibition of histone lysine methyltransferases G9a and GLP by ejection of structural Zn(II)” (Bioorg Med Chem Lett, 2018).
Active and inactive are the calls of the source. No cut-off for these calls is given here.

Tests used:
[1] = molecular target: T1, Histone-lysine N-methyltransferase EHMT1 (Homo sapiens) (UniProt Q9H9B1); assay: Induction of wild type recombinant human histone lysine methyltransferase GLP (951 to 1235 residues) protein unfolding at 100 uM by circular dichroism analysis
T1 sequence (whole entry): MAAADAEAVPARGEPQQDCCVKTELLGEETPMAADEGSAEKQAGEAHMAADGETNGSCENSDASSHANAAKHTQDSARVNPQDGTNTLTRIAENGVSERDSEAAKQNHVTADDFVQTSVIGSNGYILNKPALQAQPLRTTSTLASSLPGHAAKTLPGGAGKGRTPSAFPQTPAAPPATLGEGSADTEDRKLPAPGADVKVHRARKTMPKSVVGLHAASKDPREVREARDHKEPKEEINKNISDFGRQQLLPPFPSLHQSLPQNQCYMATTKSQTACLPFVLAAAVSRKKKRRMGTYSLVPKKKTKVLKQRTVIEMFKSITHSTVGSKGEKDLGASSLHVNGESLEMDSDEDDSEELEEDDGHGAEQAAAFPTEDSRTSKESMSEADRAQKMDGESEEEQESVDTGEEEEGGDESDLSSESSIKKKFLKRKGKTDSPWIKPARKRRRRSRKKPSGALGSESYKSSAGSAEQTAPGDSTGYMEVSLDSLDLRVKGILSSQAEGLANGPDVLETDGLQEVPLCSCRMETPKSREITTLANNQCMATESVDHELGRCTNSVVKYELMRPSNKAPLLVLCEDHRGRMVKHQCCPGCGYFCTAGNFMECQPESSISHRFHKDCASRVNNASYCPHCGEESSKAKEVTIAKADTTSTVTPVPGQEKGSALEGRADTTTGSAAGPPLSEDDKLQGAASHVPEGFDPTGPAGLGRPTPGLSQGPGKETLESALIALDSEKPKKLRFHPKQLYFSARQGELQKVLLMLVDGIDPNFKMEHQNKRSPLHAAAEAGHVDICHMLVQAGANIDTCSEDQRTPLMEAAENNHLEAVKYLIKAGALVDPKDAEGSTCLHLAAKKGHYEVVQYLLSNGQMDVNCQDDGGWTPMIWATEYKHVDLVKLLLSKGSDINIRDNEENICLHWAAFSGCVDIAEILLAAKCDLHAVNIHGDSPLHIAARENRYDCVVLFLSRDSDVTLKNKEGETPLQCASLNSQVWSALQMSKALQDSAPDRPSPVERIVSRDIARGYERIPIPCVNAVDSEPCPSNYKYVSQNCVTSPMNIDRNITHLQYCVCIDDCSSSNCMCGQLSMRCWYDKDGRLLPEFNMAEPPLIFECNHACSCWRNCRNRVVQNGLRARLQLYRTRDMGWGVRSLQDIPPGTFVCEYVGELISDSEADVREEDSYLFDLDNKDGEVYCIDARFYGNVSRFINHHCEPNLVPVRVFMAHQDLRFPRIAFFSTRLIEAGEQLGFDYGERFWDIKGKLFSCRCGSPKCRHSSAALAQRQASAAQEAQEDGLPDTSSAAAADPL

[2] = molecular target: T2, Histone-lysine N-methyltransferase EHMT1 (Homo sapiens, UniProt Q9H9B1); assay: (§1) Inhibition of wild type recombinant human histone lysine methyltransferase GLP (951 to 1235 residues) expressed in Escherichia coli Rosetta BL21 DE3 PlysS using ARTKQTARKSTGGKA as substrate preincubated for 5 mins followed by substrate/SAM addition measured after 60 mins by MALDI-TOF MS analysis
T2 sequence (Q9H9B1 whole entry): T1 sequence (whole entry)

[3] = molecular target: T3, Histone-lysine N-methyltransferase EHMT2 (Homo sapiens) (UniProt Q96KQ7); assay: Inhibition of wild type recombinant human histone lysine methyltransferase G9a (913 to 1193 residues) expressed in Escherichia coli Rosetta BL21 DE3 PlysS assessed as zinc ions ejection from Cys4-Zn finger at 100 uM by FluoZin-3 based fluorescence assay
T3 sequence (whole entry): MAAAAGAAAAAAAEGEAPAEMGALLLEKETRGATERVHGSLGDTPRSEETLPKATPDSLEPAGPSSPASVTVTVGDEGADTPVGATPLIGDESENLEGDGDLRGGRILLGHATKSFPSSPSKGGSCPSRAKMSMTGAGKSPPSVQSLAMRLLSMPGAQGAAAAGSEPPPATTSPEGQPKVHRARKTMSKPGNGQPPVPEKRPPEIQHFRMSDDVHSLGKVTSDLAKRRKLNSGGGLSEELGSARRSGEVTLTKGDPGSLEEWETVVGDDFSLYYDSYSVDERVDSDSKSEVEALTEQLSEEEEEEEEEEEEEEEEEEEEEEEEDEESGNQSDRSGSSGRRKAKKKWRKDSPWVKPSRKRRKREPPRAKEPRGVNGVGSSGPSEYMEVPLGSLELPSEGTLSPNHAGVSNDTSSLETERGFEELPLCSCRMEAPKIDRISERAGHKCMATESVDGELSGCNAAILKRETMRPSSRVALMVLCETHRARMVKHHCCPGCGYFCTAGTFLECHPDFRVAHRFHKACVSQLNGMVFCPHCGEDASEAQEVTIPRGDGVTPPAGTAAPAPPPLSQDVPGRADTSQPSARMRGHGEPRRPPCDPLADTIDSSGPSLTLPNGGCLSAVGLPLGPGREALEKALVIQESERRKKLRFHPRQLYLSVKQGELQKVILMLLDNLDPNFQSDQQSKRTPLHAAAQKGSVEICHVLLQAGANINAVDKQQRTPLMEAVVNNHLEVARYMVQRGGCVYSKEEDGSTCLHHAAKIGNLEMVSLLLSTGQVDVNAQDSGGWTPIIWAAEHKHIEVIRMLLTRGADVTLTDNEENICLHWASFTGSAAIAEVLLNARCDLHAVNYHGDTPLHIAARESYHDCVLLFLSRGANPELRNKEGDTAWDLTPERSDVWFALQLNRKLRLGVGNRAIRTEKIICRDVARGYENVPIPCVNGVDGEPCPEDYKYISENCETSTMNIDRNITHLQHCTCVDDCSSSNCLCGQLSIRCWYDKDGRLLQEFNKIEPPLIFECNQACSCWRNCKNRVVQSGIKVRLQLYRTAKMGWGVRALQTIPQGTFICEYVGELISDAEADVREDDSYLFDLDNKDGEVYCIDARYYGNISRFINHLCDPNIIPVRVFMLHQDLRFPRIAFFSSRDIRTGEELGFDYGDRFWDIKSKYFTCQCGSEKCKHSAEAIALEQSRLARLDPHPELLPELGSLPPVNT

[4] = molecular target: T1, Histone-lysine N-methyltransferase EHMT1 (Homo sapiens); assay: as §1, with “PlysS at 100 uM” for “PlysS”
[5] = molecular target: T3, Histone-lysine N-methyltransferase EHMT2 (Homo sapiens); assay: as §1, with “G9a (913” for “GLP (951”, “1193” for “1235”, “PlysS at 10 uM” for “PlysS”
[6] = molecular target: T3, Histone-lysine N-methyltransferase EHMT2 (Homo sapiens); assay: as §1, with “G9a (913” for “GLP (951”, “1193” for “1235”, “PlysS at 100 uM” for “PlysS”

In the case of `CCN(CC)C(=S)SSC(=S)N(CC)CC`, the Activity [1] is reported as “Active”, the IC50 [2] is reported as 1.6 µM and the inhibition [3] is reported as “Active”. The inhibition [4] was over 50%, the inhibition [5] was “inactive” and the inhibition [6] was over 50%.

For `O=c1c2ccccc2[se]n1-c1ccccc1` [EBSELEN], the Activity [1] was “Active”, the IC50 [2] was 0.73 µM and the inhibition [3] was “Active”. The inhibition [4] was over 50%, the inhibition [5] was “inactive” and the inhibition [6] was over 50%.
